Data as given in patent US20080319001A1, “Cancer Treatment Using Specific 3,6,9-Substituted Acridines” (priority 2005, published 2008).
Read-outs that look alike come from different tables or passages of the source.

Tests used:
[1] = test system: telomerase (extracts from A2780 human ovarian carcinoma cells); assay: Modified telomeric repeat amplification protocol (TRAP) assay, cell-free; format: biochemical
Method: The ability of compounds to inhibit telomerase in a cell-free assay was assessed with a modified TRAP assay using extracts from exponentially growing A2780 human ovarian carcinoma cells. The TRAP assay was performed in 2 steps: • (a) telomerase-mediated extension of the forward primer (TS: 5′-AATCCGTCGAGCAGAGTT, Oswel Ltd., Southampton, UK) contained in a 40 μL reaction mix comprising TRAP buffer (20 mM Tris-HCl (pH 8.3), 68 mM KCl, 1.5 mM MgCl2, 1 mM EGTA, 0.05% v/v Tween 20), 0.05 μg bovine serum albumin, 50 μM of each deoxynucleotide triphosphate, 0.1 μg TS primer, and 3 μCi of [α-P]dCTP (Amersham plc, UK)Protein (40 ng or 20 ng) was then incubated with the reaction mix and agent (acid addition and quaternary dimethiodide salts) at final concentrations of up to 50 μM for 20 min at 25° C. A lysis buffer (no protein) control, heat-inactivated protein control, and 50% protein (20 ng or 10 ng) control were included in each assay; and • (b) while heating at 80° C. in a PCR block of a thermal cycler (Hybaid, UK) for 5 min to inactivate telomerase activity, 0.1 μg of reverse CX primer (3′-[…]-5′) and 2 Units of Taq DNA polymerase (“red hot”, Advanced Biotechnologies) were added. A 3-step PCR was then performed: 94° C. for 30 s, 50° C. for 30 s, and 72° C. for 1 min for 31 cycles. Telomerase-extended PCR products in the presence or absence of compounds were then determined either by electrophoretic separation using 8% w/w acrylamide denaturing gels and analysis by phosphorimaging or autoradiography, or by harvesting on Whatman filters (25 mm glass microfibre) and analysis by liquid scintillation counting.

Thermodynamic solubility = format: physicochemical; details: for solubility at 24 h: thermodynamic from solid, read-out: Solubility Free Base equivalent
Method: Thermodynamic solubility values were determined in each of 0.1M HCl, Deionised water, pH6.8 phosphate buffer, 0.9% saline and 5% dextrose.
1.25-1.5 mg of sample was weighed out into a 1 ml HPLC tube to which 0.25 ml of the dissolution media was added to allow for determination of solubility up to 5 mg/ml. This suspension was then shaken for 24 hours before measurement of the pH, filtration (through a 96 well plate with a glass fibre filter membrane), dilution and analysis of the neat and diluted solutions at different injection volumes on a generic 5 minute HPLC method.
A reference solution was prepared in DMSO for comparison and calculation of the test solubilities. XRPD patterns were measured of remaining solids from experiments where complete dissolution was not achieved.
It is believed the large additional peak noted in the HPLC chromatograms is due to a rotamer of the parent compound. This should therefore be included in the overall peak area assessment. Therefore, the largest and second largest peaks noted in the reference solution were added together as were the same peaks (i.e. the same retention times) in the test sample injections.

Metabolic stability, HLM = format: in vitro ADME, human
[2] = Pharmacokinetic evaluation in mice (plasma kinetics); format: in vivo, mouse; details: for AUC(0-t): female, MF1, mouse; for Cmax / clearance / half-life: mouse, female MF1 mice; for half-life: single dose (1 mg/kg iv or 20 mg/kg oral; route not stated with values)
Method: The test article is identified as BSG17 and has been studied in comparison to BSG01 (BRACO-19). The vials containing bulk test article were stored at room temperature (15-30° C.).
The test compound was reconstituted in 0.9% physiological saline B.P. to the required final concentrations. To ensure the stability of the test formulations, prepared formulations were administered within two hours of preparation.
Treated mice received a single bolus intravenous injection or oral gavage of the test formulations at a dose-volume of […] bodyweight. Control mice were untreated.
The mouse was selected because it is a rodent species and is acceptable to the regulatory authorities for pharmacokinetic studies. Dose levels of 1 mg/kg (intravenous) and 20 mg/kg (oral) were selected for this study.
Female MF1 mice in the weight rang of 26-30 g (6 to 8 weeks of age) were obtained from the BRF Facility, SGHMS/Harlan UK, Bicester and were individually identified using a permanent tail mark (using a non-toxic marker pen). The test article was administered to thirty-six (36) mice after a period of seven (7) days of acclimatisation to the study room.
Blood samples were obtained from three mice per time point and at the time points as specified below:
Blood samples were collected by cardiac puncture with mice held under deep halothane anaesthesia. After sampling mice were euthanased by cervical dislocation.
Samples were collected into pre-heparinised syringes and the samples transferred into 1 ml eppendorf tubes. Plasma was prepared by centrifugation, transferred to clean, labelled eppendorf tubes and frozen at approximately −20° C. pending analysis.
Samples were analysed using HPLC or GC-MS/MS methodology.
Composite plasma concentration time curves were generated over the period of 6-8 hours after the bolus iv or oral dose was administered.

[3] = pKa measurement (Sirius GlpKa, potentiometric and UV titration); format: physicochemical
Method: Pka determination was performed on a Sirius GlpKa instrument equipped with a D-PAS (Dip-Probe Absorption Spectroscopy) attachment. Measurements were made by potentiometric and UV titration in MeOH:H2O mixtures at 25° C. The titration media was ionic strength adjusted with 0.15 M KCl. The values found in the MeOH:H2O mixtures were extrapolated to 0% co-solvent via a Yasuda-Shedlovsky extrapolation. Prediction of pKa values was made using ACD v8.07 software.
BSG01-4.14 from aqueous UV measurement (Potentiometry gave 4.15 although incomplete curves were collected). Other values from potentiometric in Aqueous/MeOH mixtures followed by Yasuda-Shedlovsky extrapolation to 0% MeOH. All pKas basic from slope of extrapolation. P BSG17—Values from potentiometric titrations in Aqueous/MeOH mixtures followed by Yasuda-Shedlovsky extrapolation to 0% MeOH. All pKas basic from slop of extrapolation. PKas 2 and 3 for titration in 30% MeOH removed from YS extrapolation due to precipitation.

[4] = Cytotoxicity / growth inhibition, DU145; format: cell-based; details: human, DU145 cells; read-out: Cytotoxic IC50 vs. DU145
[5] = Table 3, unit inferred, read-out: TRAP EC50
[6] = Table 4, read-out: Telomerase EC50
[7] = 0.9% saline, saline or isotonic, 0.9% NaCl, 24 hours
[8] = aqueous buffer, pH 6.8 phosphate buffer, 24 hours
[9] = deionised water, Water, 24 hours
[10] = saline or isotonic, 5% Dextrose, 24 hours
[11] = simulated gastric fluid, 0.1M HCl, 24 hours
[12] = UV + Pot, 25° C., 0.15 M KCl, read-out: Measured pKa, pKa1
[13] = potentiometric in aqueous/MeOH, Yasuda-Shedlovsky extrapolation to 0% MeOH, read-out: Measured pKa, pKa2
[14] = potentiometric in aqueous/MeOH, Yasuda-Shedlovsky extrapolation to 0% MeOH, read-out: Measured pKa, pKa3

SMILES	EC50 [1, 5] [µM]	EC50 [1, 6] [µM]	PH of unfiltered Saturated solution (Thermodynamic solubility; 0.1M HCl)	PH of unfiltered Saturated solution (Thermodynamic solubility; 0.9% NaCl)	solubility at 24 h (Thermodynamic solubility; [7]) [mg/mL]	PH of unfiltered Saturated solution (Thermodynamic solubility; 5% Dextrose)	PH of unfiltered Saturated solution (Thermodynamic solubility; Water)	solubility at 24 h (Thermodynamic solubility; [8]) [mg/mL]	solubility at 24 h (Thermodynamic solubility; [9]) [mg/mL]	PH of unfiltered Saturated solution (Thermodynamic solubility; pH 6.8 phosphate buffer)	solubility at 24 h (Thermodynamic solubility; [10]) [mg/mL]	solubility at 24 h (Thermodynamic solubility; [11]) [mg/mL]	HLM (t = 45) (Metabolic stability, HLM)	HLM (t = 90) (Metabolic stability, HLM)	AUC(0-t) ([2]; Table 3) [nM·h]	AUC(0-t) ([2]; unit inferred) [nM·h]	Cmax [2] [µM]	clearance [2] [mL/min]	half-life [2] [h]	pKa [3, 12]	further results
CN(C)c1ccc(Nc2c3ccc(NC(=O)CCN4CCCC4)cc3nc3cc(NC(=O)CCN4CCCC4)ccc23)cc1 [BSG01]	0.115	0.115	1.25	9.80	< 0.001	8.26	8.66	2.63	< 0.001	7.45	0.22	> 5	6.1	11.2	960	960	1.9	1	1.1	4.15	Solubility Free Base equivalent (Thermodynamic solubility; Water, 24 hours): <0.001 mg/mL; pKa ([3]; aqueous UV, read-out: pKa from aqueous UV measurement): 4.14; pKa [3, 13]: 8.14; pKa [3, 14]: 9.08; pKa ([3]; potentiometric in aqueous/MeOH, Yasuda-Shedlovsky extrapolation to 0% MeOH, read-out: Measured pKa, pKa4): 9.31; pKa ([3]; titration medium, ionic strength adjusted with 0.15 M KCl, potentiometry, incomplete curves, read-out: pKa from potentiometry): 4.15; IC50 at 96 h [4]: 2.3 µM
O=C(CCN1CCCC1)Nc1ccc2c(NCc3ccc(F)c(F)c3)c3ccc(NC(=O)CCN4CCCC4)cc3nc2c1 [BSG17, N-(9-(3,4-Difluoro-benzylamino)-6-(3-pyrolidin-1-yl-propionamide)-acridin-3-yl)-3-pyrrolidin-1-yl-propionamide]	0.032	0.162	1.12	8.81	< 0.001	7.96	8.34	1.95	0.02	7.49	0.3	> 5	3.1	12.4	1230	1230	1.7	0.667	2.1	8.17	pKa [3, 13]: 9.09; pKa [3, 14]: 9.61; IC50 at 96 h [4]: 9.75 µM
